Experimental data taken from patent US8273527B2, “Viral variants” (priority 1999, dated 2012).

Key:
[1] = target: HBV DNA polymerase-reverse transcriptase (Hepatitis B virus genotype D subtype ayw, UniProt P03156); details: in vitro; cited from earlier work
[2] = tested on: duck HBV; details: in vitro; cited from earlier work
[3] = tested on: duck HBV virus; details: oral, in vivo; cited from earlier work
[4] = tested on: HBV; details: one patient with severe hepatitis B following OLT; cited from earlier work
[5] = tested on: HBV; assay: FCV prophylaxis liver transplantation trial (response pre-OLT, HBV recurrence post-OLT); format: in vivo, patients
From the text: The clinical details of the FCV prophylaxis liver transplantation protocol as previously described (19). Briefly, the aim of the study was to compare the safety and efficacy of oral FCV and IV penciclovir in reducing the risk of hepatitis B re-infection post-OLT in liver transplant patients. The study design was a multicentre, randomized, part double-blind, part placebo controlled trial in patients with end stage liver disease requiring OLT. Patients with HBV DNA levels more than 90 pg/ml at study entry (by hybridization) [high replicators] were treated with both FCV and HBIG post-OLT. These high replicators were treated with FCV (500 mg tds) to reduce HBV DNA levels prior to OLT. Famciclovir treatment was continued for 12 months post-OLT. An untreated control group of patients with HBV DNA levels less than 90 pg/ml [low replicators] at study entry were treated with HBIG alone post-OLT. In the original study, thirty six patients underwent OLT, and of these the clinical and virological outcome of twenty-two of the FCV treated patients has recently been presented (17 Manns).
Twenty six patients who had HBV levels more than 90 pg/ml at study entry (high HBV replicator [HR]) were treated with FCV pre-OLT and those patients who responded were then treated with HBIG plus FCV post-OLT. […]

[6] = tested on: HBV; details: in vitro; cited from earlier work

Sequence of HBV DNA polymerase-reverse transcriptase (P03156 whole entry): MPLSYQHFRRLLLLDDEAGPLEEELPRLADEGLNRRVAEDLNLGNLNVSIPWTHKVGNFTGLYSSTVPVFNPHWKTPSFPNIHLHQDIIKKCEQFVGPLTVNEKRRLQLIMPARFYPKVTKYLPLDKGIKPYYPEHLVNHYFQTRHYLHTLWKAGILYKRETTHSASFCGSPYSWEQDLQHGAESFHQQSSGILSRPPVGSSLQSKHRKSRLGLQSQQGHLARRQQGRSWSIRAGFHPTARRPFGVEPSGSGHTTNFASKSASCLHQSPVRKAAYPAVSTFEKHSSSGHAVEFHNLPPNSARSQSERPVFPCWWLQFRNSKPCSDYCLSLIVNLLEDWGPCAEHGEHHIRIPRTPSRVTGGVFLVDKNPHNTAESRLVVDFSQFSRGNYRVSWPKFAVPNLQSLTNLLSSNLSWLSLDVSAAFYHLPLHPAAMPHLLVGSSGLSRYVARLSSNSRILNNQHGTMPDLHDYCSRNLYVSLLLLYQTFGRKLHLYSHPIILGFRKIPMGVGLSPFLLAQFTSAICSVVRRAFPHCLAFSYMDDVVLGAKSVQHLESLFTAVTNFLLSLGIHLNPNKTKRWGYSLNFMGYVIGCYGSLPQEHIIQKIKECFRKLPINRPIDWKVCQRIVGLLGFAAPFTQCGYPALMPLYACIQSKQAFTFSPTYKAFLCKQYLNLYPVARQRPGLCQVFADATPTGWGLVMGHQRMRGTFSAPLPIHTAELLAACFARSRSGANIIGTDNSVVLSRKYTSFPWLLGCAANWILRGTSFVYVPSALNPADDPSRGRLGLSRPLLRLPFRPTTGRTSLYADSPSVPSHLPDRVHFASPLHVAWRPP

Compound: Nc1nc2c(ncn2CCC(CO)CO)c(=O)[nH]1 [Penciclovir, penciclovir]
- inhibition of HBV DNA polymerase-reverse transcriptase activity [1]: inhibit
- inhibitory activity against duck HBV DNA synthesis [2]: potent inhibitory activity

Compound: CC(=O)OCC(CCn1cnc2cnc(N)nc21)COC(C)=O [FCV, famciclovir]
- inhibition of intra-hepatic replication of duck HBV virus [3]: inhibit
- effect on HBV DNA replication [4]: reduce HBV DNA replication
- patients who responded to FCV ([5]; of 26 high HBV replicators (HBV more than 90 pg/ml at study entry) treated with FCV pre-OLT): 19 patients
- patients who did not initially respond to FCV ([5]; of the initial 26 high HBV replicators treated with FCV pre-OLT): 6 patients

Compound: Nc1ncnc2c1ncn2CCOCP(=O)(O)O [Adefovir]
- anti-HBV activity [6]: effective anti-HBV activity
